According to article PMC2441954, “Phase I pharmacokinetic and pharmacodynamic study of the prenyl transferase inhibitor AZD3409 in patients with advanced cancer” (British Journal of Cancer, 2008):
Like-named read-outs stand apart in the source and are kept apart here.

Key:
[1] = system: 253J-BV urothelial cells xenografts; set-up: method as in Stephens et al, 2003; Kelly et al, 2005; settings: mice bearing 253J-BV xenografts; ref Stephens et al, 2003; Kelly et al, 2005; cited from earlier work
[2] = healthy male volunteers; earlier trial, no reference given; cited from earlier work
[3] = set-up: method as in Kelly et al, 2005; settings: rats, oral dosing, pilot mass balance study; ref Kelly et al, 2005; cited from earlier work
[4] = system: H-Ras-transformed mouse 3T3 fibroblasts (Hras5) xenografts; set-up: method as in Stephens et al, 2003; Kelly et al, 2005; settings: mice bearing Hras5 xenografts; ref Stephens et al, 2003; Kelly et al, 2005; cited from earlier work
[5] = system: Calu-6 xenograft; set-up: method as in unpublished data; settings: Calu-6 xenograft model, ref unpublished data, cited from earlier work
[6] = system: tumour cells; set-up: method as in Kelly et al, 2005; settings: in vitro; corresponds to the μM values; ref Kelly et al, 2005; cited from earlier work
[7] = Plasma pharmacokinetics (LC-MS/MS, noncompartmental) in phase I patients; type: in vivo, human; settings: for Cmax / AUC: human, plasma, oral; for AUC: read-out: AUC0−τ
Procedure: Pharmacokinetic studies were performed in all patients. Ethylenediaminetetraacetic acid blood samples were collected during the first cycle: on day 1 before the first drug intake and 0.5, 1, 2, 4, 6, 8, 12 and 24 h after administration; on days 3, 8 and 15 before the morning drug intake and 2 h after administration; and on day 22 before the morning drug intake and 0.5, 1, 2, 4, 6, 8, 12 and 24 h after administration. Samples were immediately put on ice and centrifuged at 4°C for 10 min at 1500 g. The resulting plasma was stored at −70°C until analysis. Plasma samples of the last three patients were not measured as the study was stopped before analysis.
The total plasma concentrations of AZD3409 ester and AZD3409 acid were determined by LC–MS/MS. The plasma samples were treated with dithiothreitol to reduce any disulphide bonds. The sample pretreatment was based on protein precipitation with acidic acetonitrile. Isotopically labelled analogues were used as internal standards. The method has been validated regarding selectivity, accuracy, precision and stability in human plasma. The lower limit of quantification was 3 ng ml^−1 for both AZD3409 ester and AZD3409 acid, with a 50 μl sample volume.
The following PK parameters were determined, either by direct observation or by noncompartmental analysis (WinNonlin, version 5.0.1; Pharsight, Mountain View, CA, USA): the minimal plasma concentration (Cmin), the maximal plasma concentration (Cmax), the area under the curve within one dosing interval (AUC0−τ) and total plasma clearance (Cl/F). Correlations between dose and Cmax levels and between dose and AUC0−τ were analysed on day 1 using the nonparametric Spearman's ρ (Rs) correlation test. Accumulation was tested with an exact Wilcoxon's rank paired signed test. Linear measures mixed effects models were constructed with SAS (SAS Institute Inc., Cary, NC, USA) to determine the effect of the dose on the trough plasma concentrations of both metabolites. The daily dose, time (days), gender and age were considered to be a fixed effect, and the patient variable was considered to be a random effect. Owing to the distribution of the trough plasma concentration log transformation was applied.

[8] = system: cytochrome P450; set-up: method as in unpublished data; settings: once daily oral dosing to rats for 28 days; ref unpublished data; cited from earlier work
[9] = system: RT-112 urothelial cells xenografts; set-up: method as in Stephens et al, 2003; Kelly et al, 2005; settings: mice bearing RT-112 xenografts; ref Stephens et al, 2003; Kelly et al, 2005; cited from earlier work
[10] = system: solid malignant tumour; experiment: Tumour response (RECIST) in phase I patients; type: in vivo, human
Procedure: Pretreatment evaluation included a complete medical history and physical examination. Measurable and evaluable disease was documented before the start of the study and during the study as a basis for the assessment of clinical activity of the treatment. Tumour response was recorded according to RECIST criteria ([Therasse et al, 2000]). Toxicity was monitored at each visit. All toxicities observed were graded according to the Common Toxicity Criteria, version 2.0 ([National Cancer Institute, 1998]). DLT was defined as any of the following events during the first treatment cycle: grade 3 or 4 anaemia or thrombocytopaenia, febrile neutropaenia grade 3, or grade 4 neutropaenia, grade 3 or 4 biochemical toxicity, grade 2 (or worse) nausea and vomiting despite optimal antiemetic therapy, grade 3 or 4 diarrhoea despite optimal loperamide support, failure to take study medication for 7 days or more within the first treatment cycle due to drug-related toxicity or any CTC grade 3 or 4 nonhaematological toxicity (excluding alopaecia). The MTD was defined as the dose below the dose at which two or three of three, or two or more of six patients experienced DLT during cycle 1.

[11] = biological target: GGTase-1; set-up: method as in Stephens et al, 2003; settings: Ki4B-Ras as substrate; ref Stephens et al, 2003; cited from earlier work
[12] = biological target: FTase; set-up: method as in Stephens et al, 2003; settings: Ki4B-Ras as substrate; ref Stephens et al, 2003; cited from earlier work
[13] = 500 mg once daily, day 1, dose 500 (once daily), N=3, mean (SD)
[14] = 500 mg once daily, day 22, dose 500 (once daily), N=2, absolute values
[15] = 750 mg b.i.d., day 1, dose 750 b.i.d., N=8, mean (SD)
[16] = 750 mg b.i.d., day 22, dose 750 b.i.d., N=3, mean (SD)
[17] = 1000 mg once daily, day 1, dose 1000 (once daily), N=3, mean (SD)
[18] = 1000 mg once daily, day 22, dose 1000 (once daily), N=3, mean (SD)
[19] = 1250 mg b.i.d., day 1, dose 1250 b.i.d., N=6, mean (SD)
[20] = 1250 mg b.i.d., day 22, dose 1250 b.i.d., N=4, mean (SD)
[21] = 1500 mg b.i.d., day 1, dose 1500 b.i.d., N=2, absolute values
[22] = 1750 mg b.i.d., day 1, dose 1750 b.i.d., N=4, mean (SD)
[23] = 1750 mg b.i.d., day 22, dose 1750 b.i.d., N=1

CSCC[C@H](NC(=O)c1cc(NC[C@@H]2C[C@H](SC(=O)c3cccnc3)CN2)ccc1CCc1ccc(F)cc1)C(=O)OC(C)C [AZD3409]
tumour weight [1]: significant reduction of tumour weight
dose at which diarrhoea was dose limiting [2]: 2500 mg once daily
maximum tolerated single dose [2]: 1750 mg
given radioactivity excreted in the urine [3]: 1%
tumour weight [4]: significant reduction of tumour weight
reduction of the tumour volume ([5]; associated with 66% FTase inhibition): 15%
inhibition of FTase [5]: 66%
IC50 inhibition of cell proliferation of tumour cells, converted [6]: 0.035 to 3.5 µg/mL
appearance of parent drug in blood ([7]; after oral administration, rapidly metabolised in the gut and plasma to AZD3409 ester): does not appear in the blood
changes in cytochrome P450 content or enzyme activity [8]: no biologically significant changes
tumour weight [9]: significant reduction of tumour weight
objective tumour response ([10]; 18 evaluable patients after 4–14 weeks of treatment): No objective tumour response was observed
patients with stable disease ([10]; out of 16 patients, after approximately 2 months): 3
patients with stable disease ([10]; three of 18 evaluable patients, stable for 47, 48 and 76 days): 17%

CSCC[C@H](NC(=O)c1cc(NC[C@@H]2C[C@H](S)CN2)ccc1CCc1ccc(F)cc1)C(=O)O [AZD3409 acid]
Ki [11]: 8 nM
Ki [12]: < 1 nM
mean time at which Cmax was reached ([7]; cycle 1, plasma): 2.7 h
Spearman correlation (Rs) between dose and AUC ([7]; day 1): 0.52
Spearman correlation (Rs) between dose and Cmax ([7]; day 1): 0.43
Cl/F ([7]; day 22, dose 500 (once daily), N=2, absolute values): [465–488] l h^−1
Cl/F ([7]; day 22, dose 750 b.i.d., N=3, mean (SD)): 473 (155) l h^−1
Cl/F ([7]; day 22, dose 1000 (once daily), N=3, mean (SD)): 710 (148) l h^−1
Cl/F ([7]; day 22, dose 1250 b.i.d., N=4, mean (SD)): 785 (311) l h^−1
Cl/F ([7]; day 22, dose 1750 b.i.d., N=1): 1706 L/h
Ratio AUC0−τ day 22/day 1 ([7]; dose 500 (once daily), N=2, absolute values): [2.07–10.1]
Ratio AUC0−τ day 22/day 1 ([7]; dose 750 b.i.d., N=3, mean (SD)): 9.29 (11.2)
Ratio AUC0−τ day 22/day 1 ([7]; dose 1000 (once daily), N=3, mean (SD)): 2.10 (1.19)
Ratio AUC0−τ day 22/day 1 ([7]; dose 1250 b.i.d., N=4, mean (SD)): 1.95 (1.05)
Ratio AUC0−τ day 22/day 1 ([7]; dose 1750 b.i.d., N=1): 1.23
Cmax [7, 13]: 33.6 ng/mL
AUC [7, 13]: 160 ng·h/mL
Cmax [7, 14]: 95.9 to 111 ng/mL
AUC [7, 14]: 712 to 775 ng·h/mL
Cmax [7, 15]: 93.8 ng/mL
AUC [7, 15]: 468 ng·h/mL
Cmax [7, 16]: 138 ng/mL
AUC [7, 16]: 934 ng·h/mL
Cmax [7, 17]: 78.6 ng/mL
AUC [7, 17]: 512 ng·h/mL
Cmax [7, 18]: 106 ng/mL
AUC [7, 18]: 904 ng·h/mL
Cmax [7, 19]: 119 ng/mL
AUC [7, 19]: 677 ng·h/mL
Cmax [7, 20]: 168 ng/mL
AUC [7, 20]: 1230 ng·h/mL
Cmax [7, 21]: 83.5 to 148 ng/mL
AUC [7, 21]: 458 to 749 ng·h/mL
Cmax [7, 22]: 140 ng/mL
AUC [7, 22]: 751 ng·h/mL
Cmax [7, 23]: 165 ng/mL
AUC [7, 23]: 466 ng·h/mL
mean trough total AZD3409 acid concentrations ([7]; twice daily dosing levels): 36.3 to 81.9 ng/mL
